{"source": "paper PMC5702381", "about": "(Advances in Therapy, 2017)", "key": {"[1]": {"settings": "for AUCinf / C max: geometric mean ± SD; for CL/F: arithmetic mean ± SD; for t max: median (range)"}, "CYP2B6": {"tested_on": "CYP2B6", "settings": "cited from earlier work"}, "[2]": {"assay_type": "in vivo, human", "settings": "for CL/F: arithmetic mean ± SD"}, "CYP2C19 [3]": {"tested_on": "CYP2C19", "settings": "in vitro; ref unpublished data; cited from earlier work"}, "CYP2C19 [4]": {"tested_on": "CYP2C19", "settings": "cited from earlier work"}, "[5]": {"settings": "healthy volunteers; cited from earlier work"}, "Safety assessments": {"test": "Safety assessments", "assay_type": "in vivo, human"}, "CYP2C9": {"tested_on": "CYP2C9", "settings": "in vitro; ref unpublished data; cited from earlier work"}, "CYP3A4": {"tested_on": "CYP3A4", "settings": "in vitro; ref unpublished data; cited from earlier work"}, "[6]": {"assay_type": "in vivo, human", "settings": "for CL/F: arithmetic mean ± SD", "remark": "listed apart in the source"}, "[7]": {"settings": "healthy volunteers; cited from earlier work", "remark": "listed apart in the source"}, "[8]": {"assay_type": "in vivo, human", "settings": "for CL/F: arithmetic mean ± SD", "remark": "listed apart in the source"}, "prothrombin time (PT)": {"tested_on": "prothrombin time (PT)", "test": "Study 15L-CL-018: warfarin pharmacodynamics", "assay_type": "in vivo, human", "settings": "for AUCPT;0–168 h: geometric mean ± SD"}, "[9]": {"settings": "warfarin 25 mg + amenamevir 200 mg once daily, n = 18"}, "[10]": {"settings": "warfarin 25 mg + amenamevir 400 mg once daily, n = 15"}, "[11]": {"settings": "warfarin 25 mg alone, amenamevir 400 mg group, n = 17"}, "[12]": {"settings": "warfarin + amenamevir 200 mg once daily"}, "[13]": {"settings": "warfarin + amenamevir 400 mg once daily"}, "[14]": {"settings": "warfarin alone, amenamevir 200 mg group"}, "[15]": {"settings": "warfarin alone, amenamevir 400 mg group"}, "[16]": {"settings": "in the presence of rifampicin vs amenamevir alone"}, "[17]": {"settings": "with ketoconazole coadministration vs amenamevir alone"}}, "note": "Read-outs that look alike come from different tables or passages of the source.", "data": [{"compound": "CC(=O)C[C@H](c1ccccc1)c1c(O)c2ccccc2oc1=O", "note": "[(R)-Warfarin, (R)-warfarin]", "values": [{"measurement": "AUCinf", "setting": "[1]; [9]", "value": "67,092 ± 18,315 ng h/mL"}, {"measurement": "AUCinf", "setting": "[1]; [10]", "value": "68,723 ± 12,736 ng h/mL"}, {"measurement": "AUCinf", "setting": "[1]; [11]", "value": "75,652 ± 18,160 ng h/mL"}, {"measurement": "CL/F", "setting": "[1]; [12]", "value": "0.18 ± 0.04", "unit": "L/h"}, {"measurement": "C max", "setting": "[1]; [12]", "value": "1240 ± 134", "unit": "ng/mL"}, {"measurement": "t max", "setting": "[1]; [12]", "value": "4.0 (1.0–12.0) h"}, {"measurement": "CL/F", "setting": "[1]; [13]", "value": "0.17 ± 0.03", "unit": "L/h"}, {"measurement": "C max", "setting": "[1]; [13]", "value": "1262 ± 232", "unit": "ng/mL"}, {"measurement": "t max", "setting": "[1]; [13]", "value": "4.0 (2.0–12.0) h"}, {"measurement": "CL/F", "setting": "[1]; [14]", "value": "0.17 ± 0.04", "unit": "L/h"}, {"measurement": "C max", "setting": "[1]; [14]", "value": "1197 ± 133", "unit": "ng/mL"}, {"measurement": "t max", "setting": "[1]; [14]", "value": "4.0 (2.0–4.0) h"}, {"measurement": "CL/F", "setting": "[1]; [15]", "value": "0.16 ± 0.04", "unit": "L/h"}, {"measurement": "C max", "setting": "[1]; [15]", "value": "1187 ± 149", "unit": "ng/mL"}, {"measurement": "t max", "setting": "[1]; [15]", "value": "4.0 (2.0–12.0) h"}]}, {"compound": "CC(=O)C[C@@H](c1ccccc1)c1c(O)c2ccccc2oc1=O", "note": "[(S)-Warfarin, (S)-warfarin]", "values": [{"measurement": "AUCinf", "setting": "[1]; [9]", "value": "46,725 ± 18,437 ng h/mL"}, {"measurement": "AUCinf", "setting": "[1]; [10]", "value": "45,032 ± 23,503 ng h/mL"}, {"measurement": "AUCinf", "setting": "[1]; [11]", "value": "50,329 ± 24,609 ng h/mL"}, {"measurement": "CL/F", "setting": "[1]; [12]", "value": "0.26 ± 0.07", "unit": "L/h"}, {"measurement": "C max", "setting": "[1]; [12]", "value": "1217 ± 134", "unit": "ng/mL"}, {"measurement": "t max", "setting": "[1]; [12]", "value": "4.0 (1.0–4.0) h"}, {"measurement": "CL/F", "setting": "[1]; [13]", "value": "0.27 ± 0.08", "unit": "L/h"}, {"measurement": "C max", "setting": "[1]; [13]", "value": "1251 ± 237", "unit": "ng/mL"}, {"measurement": "t max", "setting": "[1]; [13]", "value": "2.0 (1.0–4.0) h"}, {"measurement": "CL/F", "setting": "[1]; [14]", "value": "0.25 ± 0.07", "unit": "L/h"}, {"measurement": "C max", "setting": "[1]; [14]", "value": "1194 ± 132", "unit": "ng/mL"}, {"measurement": "t max", "setting": "[1]; [14]", "value": "4.0 (2.0–4.0) h"}, {"measurement": "CL/F", "setting": "[1]; [15]", "value": "0.25 ± 0.08", "unit": "L/h"}, {"measurement": "C max", "setting": "[1]; [15]", "value": "1168 ± 162", "unit": "ng/mL"}, {"measurement": "t max", "setting": "[1]; [15]", "value": "4.0 (1.0–4.0) h"}]}, {"compound": "Cc1cccc(C)c1N(CC(=O)Nc1ccc(-c2ncon2)cc1)C(=O)C1CCS(=O)(=O)CC1", "note": "[Amenamevir, amenamevir]", "values": [{"measurement": "correlation of metabolism with marker-enzyme activity", "setting": "CYP2B6", "value": "significantly correlated"}, {"measurement": "CL/F", "setting": "[2]; amenamevir 400 mg + rifampicin 600 mg once daily", "value": "133.5 ± 40.0", "unit": "L/h"}, {"measurement": "CL/F", "setting": "[2]; amenamevir 400 mg alone", "value": "22.1 ± 5.9", "unit": "L/h"}, {"measurement": "pharmacokinetic interaction with rifampicin (90% CI of LS GMR vs 0.80–1.25)", "setting": "[2]; based on C max and AUCinf", "value": "significant interaction"}, {"measurement": "Cmax", "setting": "[2]; human, plasma, oral, 400 mg", "value": "1320 ± 282", "unit": "ng/mL"}, {"measurement": "half-life", "setting": "[2]; human, plasma, oral, 400 mg", "value": "8 ± 1.2", "unit": "h"}, {"measurement": "t max", "setting": "[2]; human, plasma, oral, 400 mg", "value": 3, "unit": "h"}, {"measurement": "decrease of mean t ½", "setting": "[2]; [16]", "value": 2.7, "unit": "fold"}, {"measurement": "increase of mean CL/F", "setting": "[2]; [16]", "value": "sixfold"}, {"measurement": "induction of enzyme activity", "setting": "CYP2C19 [3]", "value": "weak potential for inducing"}, {"measurement": "correlation of metabolism with marker-enzyme activity", "setting": "CYP2C19 [4]", "value": "significantly correlated"}, {"measurement": "urinary excretion as unchanged drug", "setting": "[5]", "value": "approximately 10%"}, {"measurement": "deaths, serious adverse events", "setting": "Safety assessments; across all four studies", "value": "no deaths or serious adverse events reported"}, {"measurement": "safety and tolerability", "setting": "Safety assessments; across all four studies, healthy male adults", "value": "safe and generally well tolerated"}, {"measurement": "participants reporting TEAEs", "setting": "Safety assessments; study 15L-CL-010, group that received the 200-mg dose of amenamevir (with single doses of midazolam 7.5 mg)", "value": 9.1, "unit": "%"}, {"measurement": "participants reporting TEAEs", "setting": "Safety assessments; study 15L-CL-010, group that received the 400-mg dose of amenamevir (with single doses of midazolam 7.5 mg)", "value": 9.1, "unit": "%"}, {"measurement": "TEAEs considered to be related to the study drug", "setting": "Safety assessments; study 15L-CL-018, 200-mg amenamevir dose", "value": "myalgia"}, {"measurement": "TEAEs considered to be related to the study drug", "setting": "Safety assessments; study 15L-CL-018, 400-mg amenamevir dose", "value": "back pain, abdominal pain, and dyspepsia"}, {"measurement": "induction of enzyme activity", "setting": "CYP2C9", "value": "potentially induces"}, {"measurement": "induction of enzyme activity", "setting": "CYP3A4", "value": "potentially induces"}, {"measurement": "CL/F", "setting": "[6]; amenamevir 400 mg + ketoconazole 400 mg once daily", "value": "8.0 ± 2.1", "unit": "L/h"}, {"measurement": "CL/F", "setting": "[6]; amenamevir 400 mg alone", "value": "20.8 ± 5.9", "unit": "L/h"}, {"measurement": "pharmacokinetic interaction with ketoconazole (90% CI of LS GMR vs 0.80–1.25)", "setting": "[6]; based on AUCinf", "value": "significant interaction"}, {"measurement": "Cmax", "setting": "[6]; human, plasma, oral, 400 mg", "value": "1450 ± 329", "unit": "ng/mL"}, {"measurement": "half-life", "setting": "[6]; human, plasma, oral, 400 mg", "value": "8.1 ± 1.9", "unit": "h"}, {"measurement": "t max", "setting": "[6]; human, plasma, oral, 400 mg", "value": 4, "unit": "h"}, {"measurement": "decrease of CL/F", "setting": "[6]; [17]", "value": 2.6, "unit": "fold"}, {"measurement": "increase of mean t ½", "setting": "[6]; [17]", "value": 2.2, "unit": "fold"}, {"measurement": "change of AUCinf when administered with food", "setting": "[7]", "value": "almost doubling"}]}, {"compound": "Cc1ncc2n1-c1ccc(Cl)cc1C(c1ccccc1F)=NC2", "note": "[Midazolam, midazolam]", "values": [{"measurement": "pharmacokinetic interaction with amenamevir (90% CI of LS GMR vs 0.80–1.25)", "setting": "[8]; amenamevir 400 mg once daily, based on C max and AUCinf", "value": "significant interaction"}, {"measurement": "pharmacokinetic interaction with amenamevir (90% CI of LS GMR vs 0.80–1.25)", "setting": "[8]; amenamevir 200-mg dose, based on AUCinf", "value": "significant interaction"}, {"measurement": "t max", "setting": "[8]; human, plasma, oral, 200 mg", "value": 1.5, "unit": "h"}, {"measurement": "t max", "setting": "[8]; human, plasma, oral, 400 mg", "value": 1.5, "unit": "h"}, {"measurement": "CL/F", "setting": "[8]; midazolam + amenamevir 200 mg once daily", "value": "109.0 ± 43.4", "unit": "L/h"}, {"measurement": "CL/F", "setting": "[8]; midazolam + amenamevir 400 mg once daily", "value": "143.8 ± 68.0", "unit": "L/h"}, {"measurement": "t max", "setting": "[8]; midazolam + amenamevir 400 mg once daily, median (range)", "value": "1.0 (0.5–4.0) h"}, {"measurement": "CL/F", "setting": "[8]; midazolam alone, amenamevir 200 mg group", "value": "80.1 ± 37.0", "unit": "L/h"}, {"measurement": "CL/F", "setting": "[8]; midazolam alone, amenamevir 400 mg group", "value": "78.2 ± 39.2", "unit": "L/h"}]}, {"compound": "CC(=O)CC(c1ccccc1)c1c(O)c2ccccc2oc1=O", "note": "(centres unmarked) [Warfarin, warfarin]", "values": [{"measurement": "AUCPT;0–168 h", "setting": "prothrombin time (PT); warfarin + amenamevir 200 mg once daily, n = 18", "value": "2411 ± 199", "unit": "s h"}, {"measurement": "AUCPT;0–168 h", "setting": "prothrombin time (PT); warfarin + amenamevir 400 mg once daily, n = 15", "value": "2425 ± 163", "unit": "s h"}, {"measurement": "AUCPT;0–168 h", "setting": "prothrombin time (PT); warfarin alone, amenamevir 400 mg group, n = 17", "value": "2556 ± 254", "unit": "s h"}, {"measurement": "tPTmax", "setting": "prothrombin time (PT); warfarin alone, amenamevir 400 mg group, arithmetic mean ± SD", "value": "39.5 ± 14.6", "unit": "h"}, {"measurement": "TEAEs considered to be related to the study drug", "setting": "Safety assessments; study 15L-CL-018, warfarin 25 mg alone", "value": "nausea and dyspepsia"}]}, {"compound": "CC(=O)N1CCN(c2ccc(OCC3COC(Cn4ccnc4)(c4ccc(Cl)cc4Cl)O3)cc2)CC1", "note": "(centres unmarked) [ketoconazole]", "values": [{"measurement": "participants reporting headache (TEAE)", "setting": "Safety assessments; study 15L-CL-008, during the treatment named, n = 22", "value": 18.2, "unit": "%"}]}]}
